Laboratory results taken from patent US6011006A, “Method of treating hot flushes with hexapeptides” (Novo Nordisk A/S, priority 1998, dated 2000).
Where a SMILES comes first, the peptide text is derived from it.

System: depressor response to spinal cord stimulation
Assay: Inhibition of depressor response to spinal cord stimulation in the pithed rat
Type: in vivo, Sprague Dawley rats
Conditions: for mean reduction (% of maximal depressor response): pithed male Sprague Dawley rat, intravenous, given prior to spinal cord stimulation; for effect when repeated a second time after a second non-antagonized depressor response: all animals examined
Method: Male Sprague Dawley rats (300±25 g) were anesthetized with pentobarbital sodium (50 mg/kg i.p.) and polyethylene catheters were positioned in both femoral veins for the intravenous administration of drugs, such as nociceptin and analogues, and into the left femoral artery in order to measure arterial blood pressure and heart rate.
The trachea was cannulated with polyethylene tubing and the rat was pithed, ventilated and drug treated as described by Nuki Y. et al. (Effects of Dorsal Rhizotomy on Depressor Response to Spinal Cord Stimulation Mediated by Endogenous Calcitonin Gene-related Peptide in the Pithed Rat. J. Neurosurg. 1993; 79: 899-904).
Prior administration of nociceptin and related analogs inhibited the depressor response to spinal cord stimulation accordingly: […]

## CC(=O)N[C@@H](CCCNC(=N)N)C(=O)N[C@@H](Cc1ccc(O)cc1)C(=O)N[C@@H](Cc1ccc(O)cc1)C(=O)N[C@@H](CCCNC(=N)N)C(=O)N[C@@H](Cc1c[nH]c2ccccc12)C(=O)N[C@@H](CCCCN)C(N)=O [Ac--Arg--Tyr--Tyr--Arg--Trp--Lys--NH2, Ac-Arg-Tyr-Tyr-Arg-Trp-Lys-NH2] (Ac-RYYRWK-NH2)
Dose 0.1 mg/kg
  mean reduction (% of maximal depressor response): 54 ± 12 % of maximal depressor respons
Dose 0.3 mg/kg
  mean reduction (% of maximal depressor response): 32 ± 7 % of maximal depressor respons
Pithed rat
  effect when repeated a second time after a second non-antagonized depressor response: seen when repeated a second time
Pithed rat, doses 0.1 and 0.3 mg/kg
  dose-response of inhibition of depressor response: clear dose-response

## CC(C)C[C@H](NC(=O)[C@H](CCCCN)NC(=O)[C@H](CCCN=C(N)N)NC(=O)[C@H](C)NC(=O)[C@H](CO)NC(=O)[C@H](CCCCN)NC(=O)[C@H](CCCN=C(N)N)NC(=O)[C@H](C)NC(=O)CNC(=O)[C@@H](NC(=O)[C@H](Cc1ccccc1)NC(=O)CNC(=O)CNC(=O)[C@@H](N)Cc1ccccc1)[C@@H](C)O)C(=O)N[C@@H](C)C(=O)N[C@@H](CC(N)=O)C(=O)N[C@@H](CCC(N)=O)C(=O)O [nociceptin, reference compound]
Dose 0.1 mg/kg
  mean reduction (% of maximal depressor response): 29 ± 9 % of maximal depressor respons
Dose 0.3 mg/kg
  mean reduction (% of maximal depressor response): 23 ± 6 % of maximal depressor respons
Pithed rat
  effect when repeated a second time after a second non-antagonized depressor response: seen when repeated a second time
